Tests used:
Details in all cases: P<0.05
anti-HBs IgG [1] = assay: Test 1: serum anti-HBs IgG level by ELISA after immunization with hepatitis B surface antigen plus adjuvant (composite adjuvant of embodiment 1)
Protocol: Both of the total volume of vaccines and the composite vaccine adjuvant for injection were 0.1 ml.
In the single sodium ferulate adjuvant group, sodium ferulate 10 mg and hepatitis B surface antigen 5 μg were mixed and dissolved into physiological saline 0.1 ml, and then were injected into mice subcutaneously.
(§1) In the adjuvant-free group, hepatitis B surface antigen 5 μg were mixed and dissolved into physiological saline 0.1 ml, and then were injected into mice subcutaneously.
(§2) In the blank group, each mouse was injected with physiological saline 0.1 ml.
(§3) Immunization schemes: three times immunization in total, subcutaneous injection of ICR mice in 0, 1, 6 month respectively.
(§4) B. ELISA Detection of Serum Anti-HBs IgG Level […]
(§5) The obtained experimental data were analyzed by single factor analysis of variance using SPSS11.5 statistics software, and P<0.05 having a statistically significance.

anti-HBs IgG [2] = assay: Test 3: serum anti-HBs IgG level by ELISA after immunization with hepatitis B surface antigen plus adjuvant (composite adjuvant of embodiment 3)
Protocol: Both of the total volume of vaccines for injection and of the composite vaccine adjuvant were 0.1 ml.
In the single sodium ferulate adjuvant group, sodium ferulate 50 mg and hepatitis B surface antigen 5 μg were mixed and dissolved into physiological saline 0.1 ml, and then were injected into mice subcutaneously.
as §1, §2, §3
B. ELISA Detection of Serum Anti-HBs IgG Level
After 4, 8, 16, 24, 32 weeks of the initial immunization, collect vein blood of mouse tail, separate serum, and then use ELISA to detect the serum anti-HBs IgG level by method of protein microporous kit. […]
as §5

anti-HBs IgG [3] = assay: Test 2: serum anti-HBs IgG level by ELISA after immunization with hepatitis B surface antigen plus adjuvant (composite adjuvant of embodiment 2)
Protocol: Both of the total volume of vaccine for injection and of the composite vaccine adjuvant were 0.1 ml.
In the single sodium ferulate adjuvant group, sodium ferulate 25 mg and hepatitis B surface antigen 5 μg were mixed and dissolved into physiological saline 0.1 ml, and then were injected into mice subcutaneously.
In the adjuvant-free group, hepatitis B surface antigen 5 μg were dissolved into physiological saline 0.1 ml, and then were injected into mice subcutaneously.
as §2, §3, §4, §5

Measured: antibody levels compared with the aluminum adjuvant control group

[OH-].[OH-].[Zn+2] [zinc hydroxide]
significantly higher: all assays above

From patent publication US8722030B2, “Composite vaccine adjuvant” (Institute of Medical Biology, Chinese Academy of Medical …, priority 2011, dated 2014)
